The subject of the assay is Plasmodium berghei. As to the kind of experiment: Luciferase/luciferin-expressing antifolate-resistant parasites were used to infect a culture of HepG2 cells that were pre-incubated with compounds. Infected hepatocytes emit light due to the luciferase reaction. Assay results are presented as the percent inhibition of light emission compared to control. […]. Conditions: sporozoite; for IC90: read-out: LUCIFERASE INFECTION ASSAY - IC90. The format is functional.

[1] abbreviates: PBLUC_HILL_SLOPE 15.5, PBLUC_R_SQUARED 0.469, read-out: LUCIFERASE INFECTION ASSAY - IC50.

36 compounds from ChEMBL document CHEMBL4483862, “Open-source discovery of chemical leads for next-generation chemoprotective antimalarials” (2018) can be followed below.

As usually defined, the IC50 is the concentration that gives 50% inhibition. As usually defined, the IC90 is the point of the concentration-response curve where the effect stands at 90%. For the compound `CC(C)c1ccc(CN2CCC2(C)C(=O)Nc2cnc3ccccc3c2)cc1` (configuration not stated), the IC90 was determined as 3.79 µM. Moreover, the half-inhibitory concentration (IC50) (PBLUC_HILL_SLOPE 15.4, PBLUC_R_SQUARED 0.671, read-out: LUCIFERASE INFECTION ASSAY - IC50) was 3.29 µM.
Regarding `Cn1nc(C(F)(F)F)cc1-c1ccc(NC(=O)Nc2cccc(C(F)(F)F)c2)s1`, the concentration for an effect of 90% (IC90) was greater than 7.6 µM. Further, the half-inhibitory concentration (IC50) (PBLUC_HILL_SLOPE 15.6, PBLUC_R_SQUARED 0.0592, read-out: LUCIFERASE INFECTION ASSAY - IC50) worked out at 7.44 µM.
For the compound `CC(C)C(=O)N1CCN(c2nc(CSc3ccccc3)nc3sc4c(c23)CCCC4)CC1`, the IC90 is greater than 10 µM. The half-inhibitory concentration (IC50) (PBLUC_HILL_SLOPE 15.3, PBLUC_R_SQUARED 0.212, read-out: LUCIFERASE INFECTION ASSAY - IC50) was determined as 8.67 µM.
In the case of `OC(COc1cccc(C(F)(F)F)c1)CN1CCN(c2nc(-c3ccccc3)ns2)CC1` (configuration not stated), the 90% effect concentration (IC90) is greater than 7.1 µM. Besides, the 50% inhibitory concentration (IC50) (PBLUC_HILL_SLOPE 15.4, PBLUC_R_SQUARED 0.391, read-out: LUCIFERASE INFECTION ASSAY - IC50) turned out to be 6.73 µM.
In the case of `CCC(NCC(O)COc1ccccc1C(C)C)c1ccc(Br)cc1` (configuration not stated), the IC90 is greater than 10 µM. The IC50 (PBLUC_HILL_SLOPE 15.5, PBLUC_R_SQUARED 0.67, read-out: LUCIFERASE INFECTION ASSAY - IC50) came to 9.4 µM.
Regarding `O=C(/C=C/c1ccccc1[N+](=O)[O-])OCc1nc2ccccc2s1`, the IC90 was greater than 10 µM. In addition, under “PBLUC_HILL_SLOPE 15.4, PBLUC_R_SQUARED 0.138, read-out: LUCIFERASE INFECTION ASSAY - IC50”, the IC50 is greater than 10 µM.
For `CN(C)c1cccc(-c2cnc3cnc(-c4cccc(C(N)=O)c4)cn23)c1`, the IC90 is greater than 9.23 µM. Further, for the setting “PBLUC_HILL_SLOPE 15.5, PBLUC_R_SQUARED 0.533, read-out: LUCIFERASE INFECTION ASSAY - IC50”, the IC50 came out at 8.74 µM.
For the compound `NC(c1csc(NC(=O)Nc2ccccc2-c2ccccc2)n1)C1CCCCC1` (configuration not stated), the IC90 is greater than 8.12 µM. In addition, the half-maximal inhibitory concentration (IC50) (PBLUC_HILL_SLOPE 15.5, PBLUC_R_SQUARED 0.0255, read-out: LUCIFERASE INFECTION ASSAY - IC50) is 7.57 µM.
For the compound `O=C1CN(CC(=O)N2N=C(c3ccc4ccccc4c3)CC2c2ccccc2)c2ccccc2N1` (configuration not stated), the IC90 is greater than 10 µM. For the same compound, where the note is “PBLUC_HILL_SLOPE 15.5, PBLUC_R_SQUARED 0.336, read-out: LUCIFERASE INFECTION ASSAY - IC50”, the IC50 was found to be 9.53 µM.
Consider `O=C(Cc1ccc(-c2ccccc2)cc1)NCc1cn2ccccc2n1`, for which the IC90 was greater than 10 µM. Moreover, the IC50 (PBLUC_HILL_SLOPE 15.5, PBLUC_R_SQUARED 0.301, read-out: LUCIFERASE INFECTION ASSAY - IC50) was determined as 8.96 µM.
Consider `COc1ccc(-c2cnc3ccc(-c4cccc(C(F)(F)F)c4)nn23)cc1OC`, for which the IC90 was found to be 9.93 µM. The concentration for half-maximal inhibition (IC50) (PBLUC_HILL_SLOPE 15.4, PBLUC_R_SQUARED 0.158, read-out: LUCIFERASE INFECTION ASSAY - IC50) is 8.61 µM.
As to `CN(C)CCCOc1ccc(-c2nnc3ccc(-c4cccc(Oc5ccccc5)c4)cn23)cc1`, the IC90 is greater than 10 µM. Moreover, for the setting “PBLUC_HILL_SLOPE 15.3, PBLUC_R_SQUARED 0.363, read-out: LUCIFERASE INFECTION ASSAY - IC50”, the half-maximal inhibitory concentration (IC50) is 9.36 µM.
For the compound `COc1ccc(C(=O)Nc2ccccc2-c2nc3ccccc3[nH]2)cc1S(=O)(=O)N1CCCC1`, the IC90 was greater than 10 µM. Also, where the note is “PBLUC_HILL_SLOPE 15.4, PBLUC_R_SQUARED 0.501, read-out: LUCIFERASE INFECTION ASSAY - IC50”, the IC50 was 8.92 µM.
For `c1ccc(-c2cc3c(N4CCC(c5ncc[nH]5)CC4)ncnc3s2)cc1`, the IC90 worked out at 3.94 µM. Moreover, the IC50 (PBLUC_HILL_SLOPE 15.6, PBLUC_R_SQUARED 0.358, read-out: LUCIFERASE INFECTION ASSAY - IC50) was 3.43 µM.
For the compound `COc1ccc(C(N)c2csc(NC(=O)Nc3cccc(C#N)c3)n2)cc1` (configuration not stated), the IC90 came to 3.43 µM. Under “PBLUC_HILL_SLOPE 15.3, PBLUC_R_SQUARED 0.483, read-out: LUCIFERASE INFECTION ASSAY - IC50”, the IC50 came to 2.97 µM.
In the case of `COc1ccccc1-n1c(C)cc(/C=C(\C#N)c2nnc3n2CCCCC3)c1C`, the IC90 was greater than 10 µM. In addition, the IC50 (PBLUC_HILL_SLOPE 15.5, PBLUC_R_SQUARED 0.0701, read-out: LUCIFERASE INFECTION ASSAY - IC50) came to 9.71 µM.
For `CCc1ccc(CN(Cc2cccnc2)C(=O)c2ccc3ccccc3n2)cc1`, the IC90 came out at 4.26 µM. The half-maximal inhibitory concentration (IC50) (PBLUC_HILL_SLOPE 15.3, PBLUC_R_SQUARED 0.276, read-out: LUCIFERASE INFECTION ASSAY - IC50) was determined as 3.69 µM.
With `CC(C)c1ccc(-c2csc(NC(=O)c3cccc(NC(=O)C4CCCO4)c3)n2)cc1` (configuration not stated), the IC90 is greater than 10 µM. For the same compound, the IC50 (PBLUC_HILL_SLOPE 15.4, PBLUC_R_SQUARED 0.296, read-out: LUCIFERASE INFECTION ASSAY - IC50) came to 9.87 µM.
As for `COc1cc(-c2ccc3ncc(-c4cccc(OC(F)(F)F)c4)n3n2)cc(OC)c1OC`, the concentration for an effect of 90% (IC90) was found to be 3.72 µM. For the same compound, under “PBLUC_HILL_SLOPE 15.5, PBLUC_R_SQUARED 0.302, read-out: LUCIFERASE INFECTION ASSAY - IC50”, the IC50 is 3.23 µM.
Turning to `Cc1ccc(C(=O)OCCOc2ccccc2)cc1NC(=O)c1ccco1`, the IC90 is 1.22 µM. The IC50 (PBLUC_HILL_SLOPE 15.6, PBLUC_R_SQUARED 0.272, read-out: LUCIFERASE INFECTION ASSAY - IC50) was 1.06 µM.
Take `CCC(C(=O)Nc1nc2ccccn2c1C(=O)NC1CCCCC1)c1ccccc1` (configuration not stated): the IC90 was greater than 8.16 µM. The IC50 (PBLUC_HILL_SLOPE 15.5, PBLUC_R_SQUARED 0.112, read-out: LUCIFERASE INFECTION ASSAY - IC50) is 7.66 µM.
Take `CCN(CC(=O)Nc1nnc(-c2ccccc2)o1)Cc1ccc(Br)s1`: the IC90 was 3.99 µM. In addition, the IC50 under setting [1] was 3.46 µM.
Regarding `CN(Cc1ccc(Cl)cc1Cl)C(=O)NCc1ccc(S(=O)(=O)N2CCCCC2)cc1`, the concentration for an effect of 90% (IC90) was greater than 10 µM. Moreover, the IC50 (PBLUC_HILL_SLOPE 15.3, PBLUC_R_SQUARED 0.472, read-out: LUCIFERASE INFECTION ASSAY - IC50) stood at 9.36 µM.
For `CN(C)CCCOc1ccc(-c2cn3c(-c4cccc(OC(F)(F)F)c4)cnc3cn2)cn1`, the IC90 was greater than 7.21 µM. Moreover, the IC50 (PBLUC_HILL_SLOPE 15.4, PBLUC_R_SQUARED 0.0337, read-out: LUCIFERASE INFECTION ASSAY - IC50) is 6.95 µM.
As for `Fc1ccc(CNc2ccc(-c3nc4ccccc4[nH]3)cc2)cc1`, the IC90 was greater than 10.4 µM. In addition, where the note is “PBLUC_HILL_SLOPE 15.3, PBLUC_R_SQUARED 0.322, read-out: LUCIFERASE INFECTION ASSAY - IC50”, the IC50 amounted to 9.03 µM.
For the compound `O=C(NC1CCN(C(=O)c2ccoc2)CC1)c1cccc2c3c([nH]c12)CCCCC3`, the IC90 was greater than 10 µM. In addition, the half-maximal inhibitory concentration (IC50) (PBLUC_HILL_SLOPE 15.4, PBLUC_R_SQUARED 0.491, read-out: LUCIFERASE INFECTION ASSAY - IC50) came to 9.35 µM.
Consider `CCOC(=O)c1c[nH]c2c(C)cc(Cl)cc2c1=O`, for which the IC90 is greater than 12.4 µM. Further, under “PBLUC_HILL_SLOPE 15.3, PBLUC_R_SQUARED 0.364, read-out: LUCIFERASE INFECTION ASSAY - IC50”, the IC50 is 11.2 µM.
Consider `OCCNc1nc(-c2cccnc2)nc2scc(-c3ccccc3)c12`, for which the IC90 is greater than 10 µM. In addition, the IC50 (PBLUC_HILL_SLOPE 15.6, PBLUC_R_SQUARED 0.267, read-out: LUCIFERASE INFECTION ASSAY - IC50) stood at 9.57 µM.
Turning to `COCOc1ccc(-c2cc(-c3ccc(C(N)=O)cc3)cnc2N)cc1`, the IC90 came to 3.43 µM. Also, where the note is “PBLUC_HILL_SLOPE 15.5, PBLUC_R_SQUARED 0.616, read-out: LUCIFERASE INFECTION ASSAY - IC50”, the IC50 came to 2.98 µM.
Take `CCN(Cc1ccccc1)S(=O)(=O)c1cc(C(=O)N2CCc3ccccc3C2)ccc1OC`: the IC90 is greater than 10 µM. Also, the IC50 (PBLUC_HILL_SLOPE 15.3, PBLUC_R_SQUARED 0.425, read-out: LUCIFERASE INFECTION ASSAY - IC50) is 9.68 µM.
Turning to `CC(C)c1ccc(C(=O)CSc2nc(N)cc(N)n2)c(C(C)C)c1`, the IC90 is greater than 10 µM. For the same compound, the IC50 (PBLUC_HILL_SLOPE 15.6, PBLUC_R_SQUARED 0.415, read-out: LUCIFERASE INFECTION ASSAY - IC50) came out at 9.92 µM.
In the case of `O=c1cc(C(F)(F)F)[nH]c2cc(C(F)(F)F)ccc12`, the IC90 worked out at 4.25 µM. The half-inhibitory concentration (IC50) (PBLUC_HILL_SLOPE 15.4, PBLUC_R_SQUARED 0.673, read-out: LUCIFERASE INFECTION ASSAY - IC50) is 3.68 µM.
With `N#Cc1ccc(C(=O)Nc2nc(-c3c[nH]c4ccccc34)cs2)cc1`, the IC90 was greater than 10 µM. The IC50 (PBLUC_HILL_SLOPE 15.6, PBLUC_R_SQUARED 0.4, read-out: LUCIFERASE INFECTION ASSAY - IC50) stood at 9.53 µM.
For `O=C(CNC(=O)c1ccc(Oc2ccccc2)cc1)Nc1nccs1`, the IC90 was greater than 10 µM. Besides, the IC50 under setting [1] was determined as 9.34 µM.
As to `Cc1ccc(CCCNC(=O)c2cc(C3CC3)n[nH]2)c(C)c1`, the 90% effect concentration (IC90) worked out at 4.2 µM. The IC50 (PBLUC_HILL_SLOPE 15.6, PBLUC_R_SQUARED 0.22, read-out: LUCIFERASE INFECTION ASSAY - IC50) worked out at 3.65 µM.
Consider `Nc1ncc(-c2ccc(C(=O)NC3CC3)cc2)cc1-c1ccc(F)c(Cl)c1`, for which the IC90 was determined as 8.39 µM. Further, the IC50 (PBLUC_HILL_SLOPE 15.4, PBLUC_R_SQUARED 0.346, read-out: LUCIFERASE INFECTION ASSAY - IC50) was 7.27 µM.
